SMILES strings stand for the structures.

The assay concerns Rattus norvegicus. Nature of the assay: Inhibitory activity against Bezold-jarisch functional assay, inducing a transient bradycardia upon intravenous administration of 5-hydroxytryptamine-(10 ug/kg) in anesthetized rats. The note with it: read-out: ID50 (the source's name).

For the compound `Cc1[nH]cnc1Cn1cccc(-c2ccccn2)c1=O`, the ED50 worked out at 10.4 µg/kg. In the case of `COc1cc2ccccc2c2c(=O)n(Cc3[nH]cnc3C)ccc12`, the ED50 amounted to 2.53 µg/kg. As to `Cc1[nH]cnc1Cn1cccc(-c2ccco2)c1=O`, the ED50 came to 0.9 µg/kg. Regarding `Cc1[nH]cnc1Cn1ccc2c(O)cc3ccccc3c2c1=O`, the ED50 is 0.62 µg/kg. Turning to `Cc1[nH]cnc1Cn1cnc2ccccc2c1=O`, the ED50 is over 100 µg/kg. Turning to `Cc1ccsc1-c1cccn(Cc2[nH]cnc2C)c1=O`, the ED50 was determined as 0.44 µg/kg. On to `Cc1[nH]cnc1Cn1cccc(-c2ccsc2)c1=O`, for which the ED50 is 3.1 µg/kg.

Take `Cc1ccc(-c2cccn(Cc3[nH]cnc3C)c2=O)o1`: the ED50 worked out at 9.18 µg/kg.

`Cc1[nH]cnc1Cn1cccc(-c2cc3ccccc3s2)c1=O`: the ED50 was over 100 µg/kg. With `Cc1cccc(-c2cccn(Cc3[nH]cnc3C)c2=O)c1`, the ED50 was 9.03 µg/kg. In the case of `Cc1[nH]cnc1Cn1ccc2cc3c(cc2c1=O)OCCO3`, the ED50 was over 100 µg/kg. Regarding `Cc1[nH]cnc1Cn1ccc2cc(N)ccc2c1=O`, the ED50 came to 37.9 µg/kg.

With `Cc1[nH]cnc1Cn1ccc2cc(Br)c3ccccc3c2c1=O`, the ED50 is 6.21 µg/kg.

Regarding `Cc1nc[nH]c1Cn1ccc2c(C(=O)N(C)C)cc3ccccc3c2c1=O`, the ED50 amounted to 7.46 µg/kg. For the compound `Cc1[nH]cnc1Cn1ccc2c(c1=O)-c1ccccc1CC2`, the ED50 stood at 0.46 µg/kg. For `Cc1[nH]cnc1Cn1ccc2c(O)nc3ccccc3c2c1=O`, the ED50 is 0.05 µg/kg. To `Cc1[nH]cnc1Cn1cccc(-c2cccc(F)c2)c1=O` belongs 29.9 µg/kg. In the case of `Cc1[nH]cnc1Cn1ccc2c(CO)cc3ccccc3c2c1=O`, the ED50 stood at 0.68 µg/kg. Regarding `COc1ccc(-c2cccn(Cc3[nH]cnc3C)c2=O)cc1`, the ED50 is over 100 µg/kg.

Take `Cc1[nH]cnc1Cn1cccc(-c2ccoc2)c1=O`: the ED50 was 8.65 µg/kg. For the compound `Cc1[nH]cnc1Cn1cccc(-c2cccc([N+](=O)[O-])c2)c1=O`, the ED50 is over 100 µg/kg. The result for `COc1ccccc1-c1cccn(Cc2[nH]cnc2C)c1=O` reads 18.2 µg/kg. For the compound `Cc1[nH]cnc1Cn1ccc2c(Cl)cc(Cl)cc2c1=O`, the ED50 stood at 34.6 µg/kg. For `COc1ccc2c(ccc3ccn(Cc4[nH]cnc4C)c(=O)c32)c1`, the ED50 was 56.6 µg/kg. For `Cc1[nH]cnc1Cn1ccc2cccc(N)c2c1=O`, the ED50 came to 53.1 µg/kg. Take `Cc1[nH]cnc1Cn1ccc2ccc3cccnc3c2c1=O`: the ED50 is 24.3 µg/kg.

Values taken from ChEMBL document CHEMBL1125546, “Novel 5-HT3 antagonists. Isoquinolinones and 3-aryl-2-pyridones” (J Med Chem, 1992).
